According to patent US9345700B2, “Compositions and methods useful for treating diseases” (Eutropics Pharmaceuticals, Inc., priority 2011, dated 2016):
Entries after “also recorded” stand apart in the source; their conditions may differ.

Tests used:
[1] = system: SUDHL-6; experiment: In situ mitochondrial cytochrome c release assay, semi-permeabilized SUDHL-6; format: cell-based, human; details: 20 uM; BAX/BAK-functional cell line
Description: (§1) The on-target activity of compound II-19 was validated. Changes in mitochondrial integrity were observed utilizing anti-cytochrome c conjugated to Alexa488 (BD). When the mitochondria are intact, they retain cytochrome c and have bright, punctate staining with the antibody whereas cells with compromised mitochondrial integrity will lose cytochrome c and will not stain with the antibody. This can be observed by microscopy as well as measured by a shift in fluorescence on the FL1 channel of a flow cytometer.
(§2) The selective response of mitochondria in semi-permeabilized cell lines to the compounds was observed. The assay was adapted from (Campos et al. (2006) Cytometry Part A. 69 (A):515-523).
(§3) Suspension cell lines SUDHL10 and SUDHL6 were grown in RPMI, washed once in 1×PBS and re-suspended at a concentration of 2e6/ml in assay buffer with 0.0025% Digitonin. Assay buffer; 300 mM Trehalose, 10 mM HEPES-KOH pH 7.7, 80 mM KCl, 1 mM EGTA, 1 mM EDTA, 0.1% BSA, 5 mM Succinate. Cells are incubated with test and control compounds at 10^6 cells/treatment for 1 hour at room temperature. Samples are fixed with 4% formaldehyde in PBS for 20 minutes, washed once in PBS, and blocked with 2% FBS/0.5% TritonX-100 in PBS. Samples are re-suspended in blocking buffer with 1:250 anti-cytochrome c conjugated to Alexa488 (BD Cat#56028) for 1 hour at 4° C., washed once with blocking buffer and re-suspended in 200 ul PBS. Cytochrome c loss was measured by microscopy. At least 100 cells per treatment were counted and scored as positive for cytochrome c loss if they lacked staining. In both methods DMSO was calculated as 0% cytochrome c loss and the Bim response for DHL6 was used to determine 100% cytochrome c loss.

[2] = system: SUDHL-10; experiment: In situ mitochondrial cytochrome c release assay, semi-permeabilized SUDHL-10; format: cell-based, human; details: 20 uM; BAX/BAK-deficient cell line
Description: as §1, §2, §3

[3] = system: mitochondria from NCI 929; experiment: BH3 profiling of mitochondria isolated from NCI 929; format: cell-based; details: isolated mitochondria of NCI 929
Description: As another test of the ability of BH3 profiling to detect in vivo Mcl-1 dependence, the cancer cell line NCI 929 (obtained from ATCC) is examined. Mitochondria are isolated from this cell line and exposed to the panel of BH3 peptides in Table 1 and to compounds of Formula I or Formula II. MOMP is quantitated by JC-1 fluorescence and cytochrome c release is quantitated by ELISA as described in Examples 4 and 5. NCI 929 cells are sensitive to treatment with compounds of Formula I or Formula II in vitro. […] On the other hand, treatment of the mitochondria with compounds of Formula I or Formula II induces MOMP as measured by a decrease in the red JC-1 aggregate fluorescence and as measured by an increase in cytochrome c release. This provides support that compounds of formula identified Formula I or Formula II can substitute for Noxa in the mitochondrial BH3 profiling assay and that the mitochondrial response to these compounds is a powerful predictor of what cells are sensitive to Mcl-1 inhibiting drugs in vitro and in vivo.

Row | Molecule | release of cytochrome c in SUDHL-6 [1] | release of cytochrome c in SUDHL-10 [2] | mitochondrial response to BH3 peptide [3]
1 | O=C(Nc1cccnc1)c1cc(-c2ccco2)nc2ccc(-c3ccc4scnc4c3)cc12 [Compound 18, 6-(benzo[d]thiazol-5-yl)-2-(furan-2-yl)-N-(pyridin-3-yl)quinoline-4-carboxamide] | activity; also recorded: cause release of cytochrome c | lack of activity and not | –
2 | O=C(Nc1ccccc1)c1cc(-c2ccco2)nc2ccc(-c3ccc4scnc4c3)cc12 [Compound 33, 6-(benzo[d]thiazol-5-yl)-2-(furan-2-yl)-N-phenylquinoline-4-carboxamide] | activity; also recorded: cause release of cytochrome c | lack of activity and not | –
3 | O=C(Nc1cccnc1)c1cc(-c2cnn(C3CCCCO3)c2)nc2ccc(-c3ccccc3)cc12 (stereo not drawn) [Compound 37, 6-phenyl-N-(pyridin-3-yl)-2-(1-(tetrahydro-2H-pyran-2-yl)-1H-pyrazol-4-yl)quinoline-4-carboxamide] | activity; also recorded: cause release of cytochrome c | lack of activity and not | –
4 | O=C(Nc1cccnc1)c1cc(-c2cn[nH]c2)nc2ccc(-c3ccccc3)cc12 [Compound 38, 6-phenyl-2-(1H-pyrazol-4-yl)-N-(pyridin-3-yl)quinoline-4-carboxamide] | activity; also recorded: cause release of cytochrome c | lack of activity and not | –
5 | Bad: Bcl-xL reactive BH3 domain peptide Bad from the Table 1 panel (LWAAQRYGRELRRMSDEFEGSFKGL) | – | – | lacking a response
